Laboratory results taken from publication PMC6709486, “Safety, Tolerability, Pharmacokinetics, and Drug Interaction Potential of SPR741, an Intravenous Potentiator, after Single and Multiple Ascending Doses and When Combined with β-Lactam Antibiotics in Healthy Subjects” (Antimicrobial Agents and Chemotherapy, 2019).
Peptide text beside a SMILES is read from it.

Columns and labels:
[1] = clinical; parameters: species or system human; conditions: in vivo, iv
Excerpt: The SAD/MAD study was a phase 1, double-blind, placebo-controlled, multicohort trial. Part 1 used a SAD design according to which subjects received a single i.v. dose of SPR741. Part 2 used a MAD design in which subjects received multiple daily i.v. doses of SPR741 over a period of 14 days. The objective was to assess the safety/tolerability and PK of single and multiple ascending doses of SPR741. In the SAD phase, healthy volunteers were screened within 28 days prior to dosing. Subjects were admitted to the clinical facility on day −1 for up to 3 days. A single dose of SPR741 (or placebo) was administered on day 1. Following completion of all safety assessments and sampling for PK analyses, subjects were discharged on day 2. A follow-up visit occurred 5 to 7 days after day 1 dosing. In the MAD phase, all subjects were admitted to the clinical facility on day −1. Dosing commenced on the morning of day 1. Three doses were administered daily at approximately 8 (±0.5)-h intervals for a total of 14 consecutive days. The last dose was administered on the morning of day 14. Blood and urine samples were collected for assessment of PK parameters. Subjects were discharged on day 16 following completion of all PK sample collection and safety assessments, and a follow-up visit occurred 5 to 7 days after the last dose. In the SAD phase, subjects were randomized to one of eight cohorts that received doses of 5, 15, 50, 100, 200, 400, 600 or 800 mg of SPR741. Within each cohort, two subjects received placebo, and six received SPR741. In cohort 1, two subjects (sentinels) were dosed with SPR741 or placebo 48 h prior to dosing of the remaining subjects. The remaining six subjects were dosed only after no safety concerns were identified in the sentinel subjects. After each dose cohort had completed administration of study drug and evaluation, a Safety Monitoring Group reviewed blinded cumulative safety data (including day 5 to day 7 follow-up data) to confirm the safety and tolerability of SPR741.

[2] = parameters: species or system human; conditions: in vivo
Excerpt: The SAD/MAD study was a phase 1, double-blind, placebo-controlled, multicohort trial. Part 1 used a SAD design according to which subjects received a single i.v. dose of SPR741. Part 2 used a MAD design in which subjects received multiple daily i.v. doses of SPR741 over a period of 14 days. The objective was to assess the safety/tolerability and PK of single and multiple ascending doses of SPR741. In the SAD phase, healthy volunteers were screened within 28 days prior to dosing. Subjects were admitted to the clinical facility on day −1 for up to 3 days. A single dose of SPR741 (or placebo) was administered on day 1. Following completion of all safety assessments and sampling for PK analyses, subjects were discharged on day 2. A follow-up visit occurred 5 to 7 days after day 1 dosing. In the MAD phase, all subjects were admitted to the clinical facility on day −1. Dosing commenced on the morning of day 1. Three doses were administered daily at approximately 8 (±0.5)-h intervals for a total of 14 consecutive days. The last dose was administered on the morning of day 14. Blood and urine samples were collected for assessment of PK parameters. Subjects were discharged on day 16 following completion of all PK sample collection and safety assessments, and a follow-up visit occurred 5 to 7 days after the last dose. In the SAD phase, subjects were randomized to one of eight cohorts that received doses of 5, 15, 50, 100, 200, 400, 600 or 800 mg of SPR741. Within each cohort, two subjects received placebo, and six received SPR741. In cohort 1, two subjects (sentinels) were dosed with SPR741 or placebo 48 h prior to dosing of the remaining subjects. The remaining six subjects were dosed only after no safety concerns were identified in the sentinel subjects. After each dose cohort had completed administration of study drug and evaluation, a Safety Monitoring Group reviewed blinded cumulative safety data (including day 5 to day 7 follow-up data) to confirm the safety and tolerability of SPR741. For both studies, safety assessments included clinical laboratory testing (hematology, coagulation, serum chemistry, renal chemistry, and urinalysis), vital signs (blood pressure, heart rate, body temperature, and respiratory rate), physical examination, and triplicate 12-lead ECGs. […] Adverse events were recorded at each study visit.

With CC(=O)N[C@H](C(=O)N[C@H](CO)C(=O)N[C@H]1CCNC(=O)[C@H]([C@@H](C)O)NC(=O)[C@H](CCN)NC(=O)[C@H](CCN)NC(=O)[C@H](CC(C)C)NC(=O)[C@@H](Cc2ccccc2)NC(=O)[C@H](CCN)NC1=O)[C@@H](C)O [SPR741] (HELM PEPTIDE1{[ac].T.[dS].[Dab].[Dab].[dF].L.[Dab].[Dab].T}$PEPTIDE1,PEPTIDE1,4:R3-10:R2$$$V2.0) the Tmax ([1]; human) was 1 h, the AUC(0-inf) ([1]; human, 5 mg) was 1010 ng·h/mL and the Cmax ([1]; human, 5 mg) was 370 ng/mL. It also gave a Vd ([1]; human, 5 mg) of 14.4 L, a clearance ([1]; human, 5 mg) of 83.3 mL/min and a half-life ([1]; human, 5 mg) of 2.02 h. The AUC(0-inf) ([1]; human, 15 mg) was 3090 ng·h/mL, the Cmax ([1]; human, 15 mg) was 924 ng/mL and the Vd ([1]; human, 15 mg) was 19.7 L. The clearance ([1]; human, 15 mg) was 84 mL/min, the half-life ([1]; human, 15 mg) was 2.81 h and the AUC(0-inf) ([1]; human, 50 mg) was 9740 ng·h/mL. For the same compound, the Cmax ([1]; human, 50 mg) was 3250 ng/mL, the Vd ([1]; human, 50 mg) was 18.4 L and the clearance ([1]; human, 50 mg) was 86.3 mL/min. For the same compound, the half-life ([1]; human, 50 mg) was 2.48 h, the AUC(0-inf) ([1]; human, 100 mg) was 18200 ng·h/mL and the Cmax ([1]; human, 100 mg) was 6010 ng/mL. The Vd ([1]; human, 100 mg) was 20.6 L, the clearance ([1]; human, 100 mg) was 92.5 mL/min and the half-life ([1]; human, 100 mg) was 2.57 h. For the same compound, the AUC(0-inf) ([1]; human, 200 mg) was 37300 ng·h/mL, the Cmax ([1]; human, 200 mg) was 13400 ng/mL and the Vd ([1]; human, 200 mg) was 20.3 L. It also gave a clearance ([1]; human, 200 mg) of 91 mL/min, a half-life ([1]; human, 200 mg) of 2.62 h and an AUC(0-inf) ([1]; human, 400 mg) of 82200 ng·h/mL. The Cmax ([1]; human, 400 mg) was 26000 ng/mL, the Vd ([1]; human, 400 mg) was 24.5 L and the clearance ([1]; human, 400 mg) was 81.5 mL/min. The half-life ([1]; human, 400 mg) was 3.47 h, the AUC(0-inf) ([1]; human, 600 mg) was 133000 ng·h/mL and the Cmax ([1]; human, 600 mg) was 38000 ng/mL. It also gave a Vd ([1]; human, 600 mg) of 24.6 L, a clearance ([1]; human, 600 mg) of 77 mL/min and a half-life ([1]; human, 600 mg) of 3.76 h. It also gave an AUC(0-inf) ([1]; human, 800 mg) of 190000 ng·h/mL, a Cmax ([1]; human, 800 mg) of 52600 ng/mL and a Vd ([1]; human, 800 mg) of 21.2 L. For the same compound, the clearance ([1]; human, 800 mg) was 70.8 mL/min, the half-life ([1]; human, 800 mg) was 3.46 h and the “time of peak mean plasma concentration” value [1] was “approximately 1 h”. The “TEAE classified as a renal or urinary disorder” value [2] was “No subjects”, the “abnormal serum creatinine value” [2] was “no subject” and the “headache: No. (%) of subjects” value [2] was 4 (8%). For the same compound, the “severe TEAE or serious adverse event” value [2] was “No subject”.
